{
  "source": "patent US9675649B2",
  "about": "“Disialyllacto-N-tetraose (DSLNT) or variants, isomers, analogs and derivatives thereof to prevent or inhibit bowel disease” (The Regents of the University of California, priority 2011, dated 2017)",
  "test_system": "NEC model in neonatal rats",
  "assay": "Induction and evaluation of NEC in neonatal rats (formula feeding by oral gavage plus hypoxia)",
  "type": "in vivo, Sprague-Dawley rats",
  "details": "HMO fractions/subfractions added to formula at their respective concentrations in pooled HMO at 10 mg/ml, 96 h post-partum",
  "description": "Instead, we tested HMO in a well-established NEC model with neonatal Sprague-Dawley rats. We induced time-pregnant rats by oxytocin and randomized their pups into the different intervention groups. Some pups were left with the dam to serve as breast-fed controls; others were formula-fed by oral gavage twice daily. All pups were exposed to hypoxia thrice daily. On day-of-life 4, we sacrificed the pups and analyzed their intestines for macroscopic and microscopic signs of NEC. The ileum was prepared for H&E staining and evaluated blindly by three independent investigators to determine NEC pathology scores. […] We then isolated HMO from pooled human milk and added them to the formula.\nEach HMO fraction and subfraction was tested at concentrations that were based on their relative abundance in pooled HMO at 10 mg/mL, the average concentration in mature human milk. Assuming an average molecular weight of 1,000 g/mol for pooled HMO, 10 mg/mL is equivalent to 10 mM.\nBriefly, pregnant time-dated Sprague-Dawley rats were induced at term using Pitocin (1-2 U per animal). Immediately after birth, neonates were randomized into one of the different study groups. Animals in the dam-fed (DF) group remained with the dam. All other animals were separated from the dam, housed in a temperature- and humidity-controlled incubator and orally gavaged with a special rodent formula (0.2 ml) twice daily. […] A 0.5 cm section of the terminal ileum was prepared for H&E staining per standard protocols and scored blindly by three investigators based on morphological changes that included epithelial sloughing, villus oedema, infiltration of neutrophils, apoptosis of villus enterocytes, crypt hyperplasia and misaligned nuclei in the epithelium. […] Pathology scores were plotted for each animal and the mean calculated per group. […] Differences between the groups were calculated by one-way ANOVA with the Kruskal-Wallis test and Dunn's multiple comparison test. […]",
  "data": [
    {"smiles": "CC(=O)N[C@H]1[C@H](O[C@H]2[C@@H](O)[C@@H](CO)O[C@@H](O[C@@H]([C@H](O)[C@@H](O)C=O)[C@H](O)CO)[C@@H]2O)O[C@H](CO[C@]2(C(=O)O)C[C@H](O)[C@@H](NC(C)=O)[C@H]([C@H](O)[C@H](O)CO)O2)[C@@H](O)[C@@H]1O[C@@H]1O[C@H](CO)[C@H](O)[C@H](O[C@]2(C(=O)O)C[C@H](O)[C@@H](NC(C)=O)[C@H]([C@H](O)[C@H](O)CO)O2)[C@H]1O", "note": "[DSLNT, Disialyllacto-N-tetraose]", "values": [
      {"measurement": "ileum pathology score", "setting": "listed as #2", "value": "significantly reduced NEC"},
      {"measurement": "ileum pathology score", "setting": "listed as HMO 2", "value": "0.64±0.41"},
      {"measurement": "ileum pathology score", "setting": "listed as HMO #2", "value": "significantly reduced NEC pathology scores"}
    ]}
  ]
}
